From ChEMBL document CHEMBL1201862, “PubChem BioAssay data set” (2004)
Active and inactive are the calls of the source. Cut-off read from the data, not from the text of the source, for most assays here: actives have a measured EC50 and inactives only a lower limit.

Assays:
BJ [1] = experiment: cytotoxicity toward Ras-transformed BJeLR fibroblasts, dose response, cell-based, alamar blue fluorescence, cherrypicked samples (AID 2631); assay type: functional; details: Homo sapiens;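 note: confirmatory dose-response assay in RAS-dependent BJ fibroblasts engineered with TERT, LT and ST, with cytotoxicity read by fluorescence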
Melanocortin receptor 4 = Melanocortin receptor 4 (Homo sapiens, UniProt P32245); experiment: MC4R antagonist potency on cAMP, dose response, cell-based, TR-FRET, biased antagonists (AID 602298); assay type: functional;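 note: antagonist potency against agonist-stimulated cAMP production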
[2] = nonselective inhibitors of cellular cAMP signaling, dose response, counter-screen for MC4R biased antagonist project, cell-based, TR-FRET cAMP detection (AID 602305); assay type: functional;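 note: U2OS cells stimulated with forskolin near its EC80 as the cAMP inducer; potency is for inhibition of forskolin-stimulated cAMP signaling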
BJ [3] = experiment: cells; assay type: functional, cell-based; details: Homo sapiens
BJ [4] = experiment: cytotoxicity toward BJ-TERT fibroblasts, dose response, cell-based, RAS-independent, luminescence (AID 1933); assay type: functional; details: Homo sapiens
BJ [5] = experiment: cytotoxicity toward BJ-TERT-LT-ST fibroblasts, dose response, cell-based, RAS-independent, luminescence (AID 1935); assay type: functional; details: Homo sapiens;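 note: BJ fibroblasts immortalized with TERT plus LT and ST oncogenes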
[6] = target: Luciferin 4-monooxygenase (Photinus pyralis, UniProt P08659); experiment: firefly luciferase enzyme inhibitors, dose response, biochemical, luminescence (AID 1891)
[7] = cytotoxicity toward DRD oncogenic fibroblasts, dose response, cell-based, non-viral oncogenic, luminescence (AID 1934); assay type: functional; details: Homo sapiens
[8] = Luminescence Cell-Based Dose Confirmation HTS to Identify Inhibitors of Platelet Dense Granule Release. [Related pubchem assays: 1663 (Primary HTS), 1678 (Summary of Project)]; assay type: functional
[9] = NIH-3T3 fibroblast cytotoxicity, dose response, cytotoxicity control, cell-based, fluorescence, Alamar Blue, secondary assay (AID 2327); assay type: functional;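 note: NIH-3T3 mouse fibroblasts cultured with fluconazole at 8 µg/mL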
[10] = target: Serine/threonine-protein phosphatase (Candida dubliniensis (strain CD36 / CBS 7987 / NCPF 3949 / NRRLY-17841) (Yeast), UniProt B9W6M3); experiment: calcineurin pathway inhibitors in yeast reporter, dose response, S. cerevisiae, CDRE-lacZ, luminescence, secondary (AID 2388); assay type: functional, cell-based;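 note: yeast reporter cells carrying a calcineurin-responsive lacZ construct stimulated with calcium chloride; luminescent beta-galactosidase reporter signal in whole cells rather than isolated phosphatase activity; potency for inhibition where a drop in reporter signal means calcineurin blockade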
[11] = target: ATP-dependent molecular chaperone HSP82 (Candida albicans (strain WO-1) (Yeast), UniProt C4YTQ8); experiment: loss of DOC-induced GRE-beta-galactosidase reporter signal, dose response, Hsp90 inhibitor project, S. cerevisiae, luminescence (AID 2400); assay type: functional, cell-based;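 note: beta-galactosidase luminescence from glucocorticoid response element reporter as proxy for Hsp90 function; inhibitor potency where signal loss means Hsp90 inhibition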
[12] = C. albicans growth with fluconazole, confirmation, fluorescence, retest (AID 2467); assay type: functional, cell-based
Phospholipase D1 = Phospholipase D1 (Homo sapiens, UniProt Q13393); experiment: PLD1 inhibitor potency in cells, dose response (AID 602151); assay type: functional;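 note: cellular PLD1 assay in Calu-1 cells stimulated with PMA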
Phospholipase D2 = Phospholipase D2 (Homo sapiens, UniProt O14939); experiment: PLD2 inhibitor potency in cells, dose response (AID 602147); assay type: functional;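 note: cellular assay in HEK293 cells overexpressing GFP-tagged PLD2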
[13] = CAL PDZ domain peptide-binding inhibitors, dose response, biochemical, fluorescence polarization, untagged CAL PDZ, cherry-pick, set 2 (AID 602254); assay type: functional

Sequence of Melanocortin receptor 4 (P32245 whole entry): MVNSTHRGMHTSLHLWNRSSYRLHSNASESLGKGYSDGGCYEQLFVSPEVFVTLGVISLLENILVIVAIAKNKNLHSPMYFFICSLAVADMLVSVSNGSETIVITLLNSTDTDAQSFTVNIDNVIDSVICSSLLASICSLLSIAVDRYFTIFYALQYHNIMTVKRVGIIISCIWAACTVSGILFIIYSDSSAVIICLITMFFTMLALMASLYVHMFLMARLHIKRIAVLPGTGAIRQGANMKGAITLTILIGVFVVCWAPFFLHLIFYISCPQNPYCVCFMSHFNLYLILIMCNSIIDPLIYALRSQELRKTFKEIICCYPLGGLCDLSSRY
Sequence of ATP-dependent molecular chaperone HSP82 (C4YTQ8 whole entry): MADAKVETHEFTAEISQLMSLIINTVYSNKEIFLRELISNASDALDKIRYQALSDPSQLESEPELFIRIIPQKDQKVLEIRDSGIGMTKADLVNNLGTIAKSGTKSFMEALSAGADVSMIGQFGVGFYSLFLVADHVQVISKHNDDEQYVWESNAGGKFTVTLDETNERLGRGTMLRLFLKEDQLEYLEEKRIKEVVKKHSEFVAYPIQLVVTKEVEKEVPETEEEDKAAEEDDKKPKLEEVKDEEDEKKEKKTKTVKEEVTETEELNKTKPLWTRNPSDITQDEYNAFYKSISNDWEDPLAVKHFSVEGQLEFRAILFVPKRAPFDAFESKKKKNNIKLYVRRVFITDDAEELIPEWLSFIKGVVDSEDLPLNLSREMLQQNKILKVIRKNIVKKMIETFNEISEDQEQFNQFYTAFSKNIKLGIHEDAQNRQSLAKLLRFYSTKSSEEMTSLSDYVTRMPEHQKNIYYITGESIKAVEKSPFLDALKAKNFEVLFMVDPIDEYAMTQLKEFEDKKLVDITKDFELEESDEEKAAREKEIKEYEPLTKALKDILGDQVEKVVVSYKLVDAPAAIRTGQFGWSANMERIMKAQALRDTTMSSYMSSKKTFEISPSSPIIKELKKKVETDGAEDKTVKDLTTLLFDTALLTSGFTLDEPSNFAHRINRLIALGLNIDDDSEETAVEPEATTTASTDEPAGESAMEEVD
Sequence of Serine/threonine-protein phosphatase (B9W6M3 whole entry): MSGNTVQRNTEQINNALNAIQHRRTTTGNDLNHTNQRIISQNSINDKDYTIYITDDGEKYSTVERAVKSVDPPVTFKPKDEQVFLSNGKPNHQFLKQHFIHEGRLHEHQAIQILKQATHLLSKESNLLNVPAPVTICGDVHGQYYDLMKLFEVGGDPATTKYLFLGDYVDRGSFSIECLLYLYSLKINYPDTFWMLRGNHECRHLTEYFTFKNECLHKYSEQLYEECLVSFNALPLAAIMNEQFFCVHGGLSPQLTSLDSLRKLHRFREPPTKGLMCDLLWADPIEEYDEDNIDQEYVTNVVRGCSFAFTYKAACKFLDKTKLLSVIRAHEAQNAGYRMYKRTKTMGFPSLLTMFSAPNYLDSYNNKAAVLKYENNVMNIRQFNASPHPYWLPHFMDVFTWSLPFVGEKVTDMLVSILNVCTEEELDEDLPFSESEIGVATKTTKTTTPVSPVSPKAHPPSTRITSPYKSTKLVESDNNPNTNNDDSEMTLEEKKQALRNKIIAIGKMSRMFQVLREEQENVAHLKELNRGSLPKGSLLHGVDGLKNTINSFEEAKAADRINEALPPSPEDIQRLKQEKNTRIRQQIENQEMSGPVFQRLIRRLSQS
Sequence of Phospholipase D1 (Q13393 whole entry): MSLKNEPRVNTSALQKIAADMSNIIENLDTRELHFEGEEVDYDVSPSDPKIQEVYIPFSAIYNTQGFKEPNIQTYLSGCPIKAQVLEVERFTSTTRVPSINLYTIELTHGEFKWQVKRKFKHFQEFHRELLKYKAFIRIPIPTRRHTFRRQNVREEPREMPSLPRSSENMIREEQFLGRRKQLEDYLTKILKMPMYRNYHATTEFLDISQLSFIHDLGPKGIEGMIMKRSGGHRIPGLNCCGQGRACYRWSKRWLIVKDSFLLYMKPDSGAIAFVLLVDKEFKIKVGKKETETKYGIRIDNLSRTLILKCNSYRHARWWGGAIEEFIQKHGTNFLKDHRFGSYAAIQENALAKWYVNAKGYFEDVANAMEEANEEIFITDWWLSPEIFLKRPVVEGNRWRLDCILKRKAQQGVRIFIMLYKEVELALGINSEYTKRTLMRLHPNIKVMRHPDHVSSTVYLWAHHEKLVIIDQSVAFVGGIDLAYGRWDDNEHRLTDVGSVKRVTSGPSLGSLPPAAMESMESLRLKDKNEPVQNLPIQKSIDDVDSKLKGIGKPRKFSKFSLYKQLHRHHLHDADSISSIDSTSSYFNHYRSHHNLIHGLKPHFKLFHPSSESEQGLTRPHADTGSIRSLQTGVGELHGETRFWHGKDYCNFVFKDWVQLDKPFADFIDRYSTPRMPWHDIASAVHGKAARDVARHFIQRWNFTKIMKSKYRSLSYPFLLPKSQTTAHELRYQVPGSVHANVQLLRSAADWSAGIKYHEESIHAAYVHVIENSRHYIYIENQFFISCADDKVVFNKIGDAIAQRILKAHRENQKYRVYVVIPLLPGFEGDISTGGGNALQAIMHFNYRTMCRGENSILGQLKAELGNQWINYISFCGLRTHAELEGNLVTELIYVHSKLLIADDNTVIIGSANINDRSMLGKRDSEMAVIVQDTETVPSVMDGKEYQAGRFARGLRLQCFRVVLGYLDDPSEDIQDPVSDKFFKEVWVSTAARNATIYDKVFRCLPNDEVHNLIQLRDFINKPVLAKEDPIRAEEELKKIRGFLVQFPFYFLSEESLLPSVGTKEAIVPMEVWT
Sequence of Phospholipase D2 (O14939 whole entry, the tested form may be a part): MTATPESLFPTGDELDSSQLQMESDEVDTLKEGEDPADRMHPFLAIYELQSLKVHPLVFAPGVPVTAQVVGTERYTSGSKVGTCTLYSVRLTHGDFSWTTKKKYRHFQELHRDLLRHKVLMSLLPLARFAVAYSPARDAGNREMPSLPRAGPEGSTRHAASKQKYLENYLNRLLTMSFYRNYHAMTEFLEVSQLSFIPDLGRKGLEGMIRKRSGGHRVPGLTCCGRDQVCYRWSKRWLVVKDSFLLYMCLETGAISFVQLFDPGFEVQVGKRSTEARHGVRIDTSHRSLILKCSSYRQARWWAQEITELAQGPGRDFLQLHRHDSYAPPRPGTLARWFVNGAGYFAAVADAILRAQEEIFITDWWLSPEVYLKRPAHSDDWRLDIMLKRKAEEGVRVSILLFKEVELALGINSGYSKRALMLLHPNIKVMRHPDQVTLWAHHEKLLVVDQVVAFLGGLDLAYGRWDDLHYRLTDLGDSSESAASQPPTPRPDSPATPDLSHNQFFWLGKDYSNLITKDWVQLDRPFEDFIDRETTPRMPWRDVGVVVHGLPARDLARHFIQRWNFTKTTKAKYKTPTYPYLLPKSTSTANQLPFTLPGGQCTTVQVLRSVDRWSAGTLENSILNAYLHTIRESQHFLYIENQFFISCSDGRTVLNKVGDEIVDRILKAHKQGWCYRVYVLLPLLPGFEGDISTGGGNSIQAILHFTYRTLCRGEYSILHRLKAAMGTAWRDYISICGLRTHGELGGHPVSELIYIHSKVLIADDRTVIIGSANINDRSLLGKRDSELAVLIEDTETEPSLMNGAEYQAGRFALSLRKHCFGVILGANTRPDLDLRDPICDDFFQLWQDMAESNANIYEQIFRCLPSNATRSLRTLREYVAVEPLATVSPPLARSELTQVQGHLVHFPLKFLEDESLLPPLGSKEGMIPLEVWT
Sequence of Luciferin 4-monooxygenase (P08659 whole entry): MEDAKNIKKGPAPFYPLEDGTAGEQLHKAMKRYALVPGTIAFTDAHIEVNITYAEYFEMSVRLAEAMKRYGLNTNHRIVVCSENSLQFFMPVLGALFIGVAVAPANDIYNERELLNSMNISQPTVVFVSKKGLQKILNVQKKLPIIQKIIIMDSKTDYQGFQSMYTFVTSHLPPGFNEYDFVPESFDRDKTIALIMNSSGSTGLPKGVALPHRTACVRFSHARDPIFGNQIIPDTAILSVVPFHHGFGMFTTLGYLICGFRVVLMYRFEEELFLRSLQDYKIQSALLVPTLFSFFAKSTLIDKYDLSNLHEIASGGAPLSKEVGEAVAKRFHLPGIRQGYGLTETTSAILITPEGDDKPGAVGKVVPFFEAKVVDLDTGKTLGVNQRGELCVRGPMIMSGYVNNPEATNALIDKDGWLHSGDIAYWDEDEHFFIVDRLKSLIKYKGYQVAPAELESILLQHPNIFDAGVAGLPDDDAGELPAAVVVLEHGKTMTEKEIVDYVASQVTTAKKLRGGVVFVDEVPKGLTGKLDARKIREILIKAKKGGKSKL

C=C1C(=O)O[C@@H]2C[C@@H](C)[C@H]3C=CC(=O)[C@]3(O)C[C@@H]12
EC50 (BJ [1]): 3.09 µM (active)

CSCCC(NC(=O)c1cccc(C)c1)C(=O)OCN1C(=O)c2ccccc2C1=O (centres undefined)
IC50 (Melanocortin receptor 4): > 21.5 µM (inactive) | IC50 [2]: > 64.6 µM (inactive)

COc1cccc(C(=O)Nc2ccc(N3CCCC3)cc2)c1
EC50 (BJ [3]): 3.26 µM (active) | EC50 (BJ [4]): 9.4 µM (active) | EC50 (BJ [5]): 13.8 µM (active) | EC50 [6]: 0.856 µM (active) | EC50 (BJ [1]): 86.1 µM (active) | EC50 [7]: 4.29 µM (active) | EC50 [8]: 1.2 µM (active)

CCOc1ccc(C(=O)CCC(=O)NCC(=O)OCc2ccccc2)cc1OCC
IC50 (Melanocortin receptor 4): > 64.6 µM (inactive) | IC50 [2]: > 64.6 µM (inactive)

COc1ccc(N(CC(=O)Nc2ccccc2C(N)=O)S(=O)(=O)c2ccc(C)c([N+](=O)[O-])c2)cc1
EC50 [9]: > 150 µM (inactive) | EC50 [10]: > 180 µM (inactive) | EC50 [11]: > 160 µM (inactive) | EC50 [12]: 0.095 µM (active)

Cc1ccc(C(=O)N[C@@H](C)CN2CCC(n3c(=O)[nH]c4ccc(F)cc43)CC2)cc1
IC50 (Phospholipase D1): 0.008 µM (active) | IC50 (Phospholipase D2): 0.18 µM (active)

COCCSc1nnc(NC(=O)Cc2ccc(OC)cc2)s1
AC50 [13]: 101 µM (active)
